One assay has as its target ERβ and COASTER (Homo sapiens, UniProt Q92731). Briefly: Yeast two-hybrid assay, β-galactosidase reporter, ERβ with COASTER amino acids 1-234. In kind it is cell-based. The note with it: yeast AH109, pGBT9.ERβ + pACT2.COASTERΔ; 10^−8 M 17β-estradiol, 10^−5 M raloxifen.
Another assay concerns the target T1, ERβ (Homo sapiens, UniProt Q92731).
T1 construct: expressed in transfected cells; host or cells: U-2 OS
Briefly: Transient transfection of U-2 OS cells with ERβ and ERE luciferase reporter, with or without COASTER. In kind it is cell-based. The note with it: 10^−8 M ligand, ± SD triplicate. As to the method:
(§1) To test the functional role of COASTER in a mammalian setting, the full length COASTER (amino acids 1-1013) cDNA was cloned in a mammalian cell expression vector. The functional role of COASTER was analyzed by cotransfection of U-2 OS cells with the COASTER expression plasmid in combination with a steroid receptor expressing plasmid, and a plasmid containing a luciferase reporter gene under control of a hormone responsive element. Following transfection, cells were stimulated with the appropriate hormone for the receptor under study.
(§2) U-2 OS cells were transiently transfected with pNGV1.ERβ and p4ERE-TATA-LUC (1), pNGV1.ERα and p4ERE-TATA-LUC (2), pKCRE.PR and pMMTV-LUC (3) or pNGV1.GR and pMMTV-LUC (4). Where indicated, COASTER expression construct pCDNA3.1HISC.COASTER was added to the transfection mixture. Following transfection, cell were incubated with the hormones indicated in the top row. […] Org 2058=16α-ethyl-21-hydroxy-19-norpregn-4-ene-3,20-dione.
(§3) Initially, a plasmid encoding a truncated form of COASTER (pACT2.COASTERΔ, amino acids 1-234) was isolated in the yeast two hybrid screen. […] The 5′ end of the COASTER (amino acid 1 to 332) was amplified by PCR on human-testis Marathon Ready cDNA (Clontech, Palo Alto, USA, cat.#7414-1) using primers […] […]
(In general: A reporter such as luciferase makes a cellular process visible.)

Assay [1] addresses progesterone receptor (PR) (Homo sapiens, UniProt P06401). As to the kind of experiment: Transient transfection of U-2 OS cells with PR and pMMTV-LUC reporter, with or without COASTER. The note with it: 10^−8 M ligand, ± SD triplicate. In kind it is cell-based. As to the method:
as §1, §2, §3

Assay [2] has as its target progesterone receptor, expressed from pKCRE.PR in U-2 OS cells. Briefly: cell-based or functional assay.
Assay [3] concerns the target glucocorticoid receptor, expressed from pNGV1.GR in U-2 OS cells (human) (UniProt P04150). As to the kind of experiment: cell-based or functional assay.
Assay [4] has as its target human estrogen receptor β, expressed from pNGV1.ERβ in U-2 OS cells (human) (UniProt Q92731). As to the kind of experiment: cell-based or functional assay.

Chain of human estrogen receptor β, expressed from pNGV1.ERβ in U-2 OS cells (human) (Q92731 whole entry): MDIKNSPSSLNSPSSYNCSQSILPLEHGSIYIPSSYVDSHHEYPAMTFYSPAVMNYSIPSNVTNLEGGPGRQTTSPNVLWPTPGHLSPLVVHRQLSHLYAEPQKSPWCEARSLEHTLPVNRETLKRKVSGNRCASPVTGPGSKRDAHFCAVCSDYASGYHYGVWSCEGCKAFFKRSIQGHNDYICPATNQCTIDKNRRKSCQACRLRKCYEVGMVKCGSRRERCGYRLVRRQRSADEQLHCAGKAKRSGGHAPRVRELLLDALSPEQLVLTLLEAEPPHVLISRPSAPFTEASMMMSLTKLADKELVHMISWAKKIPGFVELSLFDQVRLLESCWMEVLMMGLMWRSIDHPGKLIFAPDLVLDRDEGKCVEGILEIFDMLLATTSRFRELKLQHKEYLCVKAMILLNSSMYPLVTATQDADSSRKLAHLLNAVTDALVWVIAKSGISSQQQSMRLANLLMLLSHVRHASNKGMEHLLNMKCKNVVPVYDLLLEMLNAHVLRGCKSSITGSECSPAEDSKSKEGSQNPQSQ
Chain of glucocorticoid receptor, expressed from pNGV1.GR in U-2 OS cells (human) (P04150 whole entry): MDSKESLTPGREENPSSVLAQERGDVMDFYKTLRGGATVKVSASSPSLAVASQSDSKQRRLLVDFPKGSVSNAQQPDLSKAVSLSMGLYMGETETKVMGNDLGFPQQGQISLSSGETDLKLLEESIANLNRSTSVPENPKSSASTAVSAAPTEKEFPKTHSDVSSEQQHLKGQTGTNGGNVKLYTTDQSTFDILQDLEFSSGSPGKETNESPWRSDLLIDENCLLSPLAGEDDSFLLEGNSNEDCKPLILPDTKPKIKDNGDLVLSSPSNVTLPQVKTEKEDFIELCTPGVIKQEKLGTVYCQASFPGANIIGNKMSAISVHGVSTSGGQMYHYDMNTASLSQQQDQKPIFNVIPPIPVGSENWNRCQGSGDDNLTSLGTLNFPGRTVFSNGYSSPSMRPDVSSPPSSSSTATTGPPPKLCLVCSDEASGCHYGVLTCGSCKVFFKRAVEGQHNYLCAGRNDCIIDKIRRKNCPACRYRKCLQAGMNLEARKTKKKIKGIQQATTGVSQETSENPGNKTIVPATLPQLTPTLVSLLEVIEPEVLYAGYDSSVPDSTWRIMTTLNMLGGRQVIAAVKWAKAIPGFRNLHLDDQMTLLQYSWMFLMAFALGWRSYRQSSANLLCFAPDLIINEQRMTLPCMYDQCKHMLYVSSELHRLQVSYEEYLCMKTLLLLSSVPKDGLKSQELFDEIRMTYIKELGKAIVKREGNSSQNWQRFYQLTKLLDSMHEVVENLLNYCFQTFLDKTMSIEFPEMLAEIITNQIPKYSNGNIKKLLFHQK
Chain of progesterone receptor (PR) (P06401 whole entry, species assumed): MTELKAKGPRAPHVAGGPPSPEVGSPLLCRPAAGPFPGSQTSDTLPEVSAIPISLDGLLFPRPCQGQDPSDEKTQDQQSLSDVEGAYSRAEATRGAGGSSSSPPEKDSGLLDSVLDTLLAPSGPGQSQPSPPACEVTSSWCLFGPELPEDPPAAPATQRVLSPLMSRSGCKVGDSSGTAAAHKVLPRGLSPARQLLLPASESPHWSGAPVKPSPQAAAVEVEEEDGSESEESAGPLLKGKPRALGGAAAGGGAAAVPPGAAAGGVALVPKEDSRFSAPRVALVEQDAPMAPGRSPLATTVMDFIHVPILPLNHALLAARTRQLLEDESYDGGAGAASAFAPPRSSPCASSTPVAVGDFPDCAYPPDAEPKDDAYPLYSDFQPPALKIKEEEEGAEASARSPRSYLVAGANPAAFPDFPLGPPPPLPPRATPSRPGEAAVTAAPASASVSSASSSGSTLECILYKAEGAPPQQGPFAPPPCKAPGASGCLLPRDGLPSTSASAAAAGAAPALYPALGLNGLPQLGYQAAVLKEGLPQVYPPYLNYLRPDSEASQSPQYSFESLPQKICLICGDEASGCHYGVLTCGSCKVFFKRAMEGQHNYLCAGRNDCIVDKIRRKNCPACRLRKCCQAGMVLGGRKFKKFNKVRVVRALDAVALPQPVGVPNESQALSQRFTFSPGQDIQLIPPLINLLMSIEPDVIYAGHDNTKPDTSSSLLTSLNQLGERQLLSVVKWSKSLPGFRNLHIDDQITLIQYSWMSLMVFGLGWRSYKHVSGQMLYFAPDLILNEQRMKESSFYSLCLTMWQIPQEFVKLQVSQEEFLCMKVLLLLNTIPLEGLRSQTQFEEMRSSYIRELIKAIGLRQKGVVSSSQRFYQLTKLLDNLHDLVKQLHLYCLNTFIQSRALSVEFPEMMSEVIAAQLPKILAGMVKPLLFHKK
T1 sequence (Q92731 whole entry): as the sequence (Q92731 whole entry) above
Chain of ERβ and COASTER (Q92731 whole entry, the tested form may be a part): as the sequence (Q92731 whole entry) above

Consider `C[C@]12CC[C@@H]3c4ccc(O)cc4CC[C@H]3[C@@H]1CC[C@@H]2O` [17β-estradiol], for which, on ERβ and COASTER, the “β-galactosidase reporter activity (ERβ-COASTER interaction, FIG. 3)” value is “dose-dependent induction”. Further, the “signalling via the ERα/β chimera” value in the assay on ERα/β chimera was “able to signal”. In addition, the luciferase activity at ERβ (pNGV1.ERβ + p4ERE-TATA-LUC + COASTER) is given as 8200 ± 819; on ERβ (pNGV1.ERβ + p4ERE-TATA-LUC, no COASTER), 500 ± 109.
On to `CC[C@@H]1C[C@H]2[C@@H]3CCC4=CC(=O)CC[C@@H]4[C@H]3CC[C@]2(C)[C@H]1C(=O)CO` [Org 2058, 16α-ethyl-21-hydroxy-19-norpregn-4-ene-3,20-dione], for which the luciferase activity in assay [1] (pKCRE.PR + pMMTV-LUC + COASTER) is 3229 ± 683; in assay [1] (pKCRE.PR + pMMTV-LUC, no COASTER) it was 822 ± 112.
With `O=C(c1ccc(OCCN2CCCCC2)cc1)c1c(-c2ccc(O)cc2)sc2cc(O)ccc12` [raloxifen], the “signalling via the ERα/β chimera” value in the assay on ERα/β chimera is listed as “able to signal”.
For the compound “full length COASTER (amino acids 1-1013), expressed from pCDNA3.1HISC.COASTER (from UniProt Q9Y4E5 1-1013)”, in assay [2], the luciferase activity, pMMTV-LUC in U-2 OS cells, 10^-8 M Org 2058 (luciferase activity) was found to be 3230 and the luciferase activity, pMMTV-LUC in U-2 OS cells, no hormone (luciferase activity) came to 81. In assay [3], this compound displayed a luciferase activity, pMMTV-LUC in U-2 OS cells, 10^-8 M Dexamethasone (luciferase activity) of 35200 and a luciferase activity, pMMTV-LUC in U-2 OS cells, no hormone (luciferase activity) of 103. In assay [4], this compound had a luciferase activity, p4ERE-TATA-LUC in U-2 OS cells, 10^-8 M 17β-estradiol (luciferase activity) of 8200; a luciferase activity, p4ERE-TATA-LUC in U-2 OS cells, 10^-8 M ICI 164,384 (luciferase activity) of 101; a luciferase activity, p4ERE-TATA-LUC in U-2 OS cells, no hormone (luciferase activity) of 133.

For the origin of these results see patent US7354728B2, “Coactivation of nuclear receptors” (N.V. Organon, priority 2000, dated 2008).
